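These data come from cells grown in 96-well plates and exposed to compound for 48 hours at five concentrations. GI50 marks 50% less growth.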 Activity calls are given as the source filed them. Cut-off read from the data, not from the text of the source: active = GI50 up to about 1.1 µM and inactive = higher.
Tests used:
Assay in all cases: NCI anticancer screen, dose series, 48 h
HT-29 = system: HT-29
SNB-19 = system: SNB-19
MOLT-4 = system: MOLT-4
K562 = system: K562
A549 = system: A549
SW-620 = system: SW-620
NCI-H23 = system: NCI-H23
NCI-H522 = system: NCI-H522
OVCAR-5 = system: OVCAR-5
SNB-75 = system: SNB-75
RPMI-8226 = system: RPMI-8226
COLO 205 = system: COLO 205
UO-31 = system: UO-31
CCRF-CEM = system: CCRF-CEM
SK-MEL-5 = system: SK-MEL-5
LXFL 529 = system: LXFL 529
SK-MEL-2 = system: SK-MEL-2
SF-539 = system: SF-539
SF-268 = system: SF-268
OVCAR-4 = system: OVCAR-4
M19-MEL = system: M19-MEL
RXF 631 = system: RXF 631
A498 = system: A498
SR = system: SR
M14 = system: M14
Malme-3M = system: Malme-3M
HCC 2998 = system: HCC 2998
HOP-62 = system: HOP-62
ACHN = system: ACHN
NCI-H460 = system: NCI-H460
DLD-1 = system: DLD-1
HOP-92 = system: HOP-92
HCT-15 = system: HCT-15
UACC-62 = system: UACC-62
DMS-273 = system: DMS-273
SF-295 = system: SF-295
786-0 = system: 786-0
SK-OV-3 = system: SK-OV-3
HL-60 = system: HL-60
LOX IMVI = system: LOX IMVI
IGROV-1 = system: IGROV-1
RXF 393 = system: RXF 393
NCI-H226 = system: NCI-H226
OVCAR-3 = system: OVCAR-3
U-251 = system: U-251
XF498 = system: XF498
OVCAR-8 = system: OVCAR-8
EKVX = system: EKVX
SK-MEL-28 = system: SK-MEL-28
KM12 = system: KM12
CAKI-1 = system: CAKI-1
SNB-78 = system: SNB-78
TK-10 = system: TK-10

Measured: GI50

COC1=C(C)C(=O)C2C(C1=O)C(c1ccc(OC)c(OC)c1)[C@H]2C (stereo partly drawn)
inactive: HT-29 > 100 µM | SNB-19 > 100 µM | MOLT-4 > 100 µM | K562 > 100 µM | A549 > 100 µM | SW-620 > 100 µM | NCI-H23 > 100 µM | NCI-H522 > 100 µM | OVCAR-5 > 100 µM | SNB-75 72.8 µM | RPMI-8226 > 100 µM | COLO 205 > 100 µM | UO-31 61.1 µM | CCRF-CEM > 100 µM | SK-MEL-5 > 100 µM | LXFL 529 > 100 µM | SK-MEL-2 > 100 µM | SF-539 > 100 µM | SF-268 > 100 µM | OVCAR-4 > 100 µM | M19-MEL > 100 µM | RXF 631 > 100 µM | A498 > 100 µM | SR > 100 µM | M14 > 100 µM | Malme-3M > 100 µM | HCC 2998 > 100 µM | HOP-62 > 100 µM | ACHN > 100 µM | NCI-H460 > 100 µM | DLD-1 > 100 µM | HOP-92 > 100 µM | UACC-62 > 100 µM | DMS-273 > 100 µM | SF-295 > 100 µM | 786-0 > 100 µM | SK-OV-3 > 100 µM | HL-60 > 100 µM | LOX IMVI > 100 µM | IGROV-1 > 100 µM | RXF 393 > 100 µM | NCI-H226 > 100 µM | OVCAR-3 > 100 µM | U-251 > 100 µM | XF498 > 100 µM | OVCAR-8 > 100 µM | EKVX > 100 µM | SK-MEL-28 > 100 µM | KM12 > 100 µM | CAKI-1 > 100 µM | SNB-78 > 100 µM | TK-10 > 100 µM
> 100 µM: HCT-15

Source: ChEMBL document CHEMBL1201862, “PubChem BioAssay data set” (2004)
